In US6156700A, “3-(1,2-Benzisothiazol- and isoxazol-5-yl)-2,4(1H,3H)-pyrimidinedione or thione and 3-(1,2-benzisothiazol- and isoxazol-5-yl)-4(3H)-pyrimidinone or thione herbicidal agents” (American Cyanmid Company, priority 1998, dated 2000):

Key:
Settings in all cases: 0.0630 kg/ha
[1] = tested on: Wheat, Winter, cv Riband, Triticum aestivum; assay: Postemergence herbicidal evaluation, TRZAWR; assay type: in vivo
Procedure: (§1) In the tests, seedling plants are grown in jiffy flats for about two weeks. The test compounds are dispersed in 50/50 acetone/water mixtures containing 0.5% TWEEN®20, a polyoxyethylene sorbitan monolaurate surfactant of Atlas Chemical Industries, in sufficient quantities to provide the equivalent of about 0.0157 kg to 0.500 kg per hectare of active compound when applied to the plants through a spray nozzle operating at 40 psi for a predetermined time. After spraying, the plants are placed on greenhouse benches and are cared for in accordance with conventional greenhouse procedures. From four to five weeks after treatment, the seedling plants are examined and rated according to the rating system set forth below. Where more than one test is involved for a given compound, the data are averaged.
(§2) Results of herbicide evaluation are expressed on a rating scale (0-9). The scale is based upon a visual observation of plant stand, vigor, malformation, size, chlorosis and overall plant appearance as compared with a control.

[2] = tested on: Soybean, Williams, Glycine max; assay: Postemergence herbicidal evaluation, GLXMAW; assay type: in vivo, (L.) Merr. cv Williams
Procedure: as §1, §2

Corn, Field, Zea mays = assay: Postemergence herbicidal evaluation, ZEAMX; assay type: in vivo, L.
Procedure: as §1, §2

[3] = tested on: Ragweed, Common, Ambrosia artemisifolia; assay: Postemergence herbicidal evaluation, AMBEL; assay type: in vivo, L.
Procedure: as §1, §2

[4] = tested on: Sicklepod, Cassia obtusifolia; assay: Postemergence herbicidal evaluation, CASOB; assay type: in vivo, L.
Procedure: as §1, §2

[5] = tested on: Foxtail, Green, Setaria viridis; assay: Postemergence herbicidal evaluation, SETVI; assay type: in vivo, (L.) Beau
Procedure: as §1, §2

[6] = tested on: Morningglory, Ivyleaf, Ipomoea hederacea; assay: Postemergence herbicidal evaluation, IPOHE; assay type: in vivo, (L.) Jacq.
Procedure: as §1, §2

[7] = tested on: Barnyardgrass, Echinochloa crus-galli; assay: Postemergence herbicidal evaluation, ECHCG; assay type: in vivo, (L.) Beau
Procedure: as §1, §2

Galium, Galium aparine = assay: Postemergence herbicidal evaluation, GALAP; assay type: in vivo
Procedure: as §1, §2

[8] = tested on: Lambsquarters, Common, Chenopodium album; assay: Postemergence herbicidal evaluation, CHEAL; assay type: in vivo, L.
Procedure: as §1, §2

[9] = tested on: Rice, Tebonnet, Oryza sativa; assay: Postemergence herbicidal evaluation, ORYSAT; assay type: in vivo, (L.) Tebonnet
Procedure: as §1, §2

[10] = tested on: Velvetleaf, Abutilon theophrasti; assay: Postemergence herbicidal evaluation, ABUTH; assay type: in vivo, Medic.
Procedure: as §1, §2

| Structure (SMILES) | herbicide rating (0-9) [1] | herbicide rating (0-9) [2] | herbicide rating (0-9) (Corn, Field, Zea mays) | herbicide rating (0-9) [3] | herbicide rating (0-9) [4] | herbicide rating (0-9) [5] | herbicide rating (0-9) [6] | herbicide rating (0-9) [7] | herbicide rating (0-9) (Galium, Galium aparine) | herbicide rating (0-9) [8] | herbicide rating (0-9) [9] | herbicide rating (0-9) [10] |
| --- | --- | --- | --- | --- | --- | --- | --- | --- | --- | --- | --- | --- |
| CC#CCOC(=O)COc1ccc(C)cc1-c1nsc2ccc(-n3c(=O)cc(C(F)(F)F)n(C)c3=O)cc12 [Compound 75] | 9.0 | 9.0 | 7.5 | 9.0 | 7.0 | 9.0 | 9.0 | 9.0 | 7.0 | 9.0 | 6.5 | 9.0 |
| CC(=O)OCc1nsc2ccc(-n3c(=O)cc(C(F)(F)F)n(C)c3=O)cc12 [Compound 32, 3-[3-(Hydroxymethyl)-1,2-benzisothiazol-5-yl]-1-methyl-6-(trifluoromethyl)-2,4(1H,3H)-pyrimidinedione,acetate ester] | 2.0 | 5.5 | 5.5 | 9.0 | 4.0 | 5.0 | 9.0 | 2.0 | 7.0 | 9.0 | 1.0 | 9.0 |
| COc1cc(C)c(C)c(C)c1-c1nsc2ccc(-n3c(=O)cc(C(F)(F)F)n(C)c3=O)cc12 [Compound 34, 3-[3-(6-Methoxy-2,3,4-trimethylphenyl)-1,2-benzisothiazol-5-yl]-1-methyl-6-(trifluoromethyl)-2,4(1H,3H)-pyrimidinedione] | 0.0 | 3.0 | 4.0 | 1.0 | 0.0 | 7.0 | 0.0 | 1.0 | 0.0 | 4.0 | 0.0 | 0.0 |
| Cn1c(C(F)(F)F)cc(=O)n(-c2ccc3snc(Cl)c3c2)c1=O [Compound 37, 3-(3-chloro-1,2-benzisothiazol-5-yl)-1-methyl-6-(trifluoromethyl)-2,4(1H,3H)-pyrimidinedione] | 0.5 | 1.5 | 2.0 | 0.0 | 0.0 | 0.0 | 1.0 | 0.0 | 0.0 | 0.0 | 0.5 | 1.0 |
| Cc1ccc(OCC(=O)n2cnc3ccccc32)c(-c2nsc3ccc(-n4c(=O)cc(C(F)(F)F)n(C)c4=O)cc23)c1 [Compound 62] | 5.5 | 9.0 | 7.0 | 9.0 | 7.0 | 9.0 | 9.0 | 9.0 | 6.0 | 9.0 | 5.5 | 9.0 |
| C#CCOC(=O)C(C)Oc1ccc(C)cc1-c1nsc2ccc(-n3c(=O)cc(C(F)(F)F)n(C)c3=O)cc12 (stereo not drawn) [Compound 77, 2-Propynyl 2-{{2-{5-[3,6-dihydro-3-methyl-2,6-dioxo-4-(trifluoromethyl)-1(2H)-pyrimidinyl]-1,2-benzisothiazol-3-yl}-p-tolyl}oxy}propionate] | 9.0 | 7.0 | 8.0 | 9.0 | 4.0 | 9.0 | 9.0 | 9.0 | 9.0 | 9.0 | 9.0 | 9.0 |
| Cc1ccc(OCC(=O)OCCCl)c(-c2nsc3ccc(-n4c(=O)cc(C(F)(F)F)n(C)c4=O)cc23)c1 [Compound 71, 2-Chloroethyl {{2-{5-[3,6-dihydro-3-methyl-2,6-dioxo-4-(trifluoromethyl)-1(2H)-pyrimidinyl]-1,2-benzisothiazol-3-yl}-p-tolyl}oxy}acetate] | 9.0 | 9.0 | 8.5 | 9.0 | 9.0 | 9.0 | 9.0 | 9.0 | 9.0 | 9.0 | 8.0 | 9.0 |
| CC#CC(C)OC(=O)COc1ccc(C)cc1-c1nsc2ccc(-n3c(=O)cc(C(F)(F)F)n(C)c3=O)cc12 (stereo not drawn) [Compound 76, 1-Methyl-2-butynyl {{2-{5-[3,6-dihydro-3-methyl-2,6-dioxo-4-(trifluoromethyl)-1(2H)-pyrimidinyl]-1,2-benzisothiazol-3-yl}-p-tolyl}oxy}acetate] | 9.0 | 9.0 | 8.0 | 9.0 | 9.0 | 9.0 | 9.0 | 9.0 | 9.0 | 9.0 | 6.0 | 9.0 |
| C#CC(C)OC(=O)COc1ccc(C)cc1-c1nsc2ccc(-n3c(=O)cc(C(F)(F)F)n(C)c3=O)cc12 (stereo not drawn) [Compound 74, 1-Methyl-2-propynyl {{2-{5-[3,6-dihydro-3-methyl-2,6-dioxo-4-(trifluoromethyl)-1(2H)-pyrimidinyl]-1,2-benzisothiazol-3-yl}-p-tolyl}oxy}acetate] | 7.5 | 9.0 | 8.5 | 9.0 | 9.0 | 9.0 | 9.0 | 9.0 | 9.0 | 9.0 | 7.0 | 9.0 |
| Cc1ccc(OCC(=O)OC2CCCC2)c(-c2nsc3ccc(-n4c(=O)cc(C(F)(F)F)n(C)c4=O)cc23)c1 [Compound 84, Cyclopentyl {{2-{5-[3,6-dihydro-3-methyl-2,6-dioxo-4-(trifluoromethyl)-1(2H)-pyrimidinyl)-1,2-benzisothiazol-3-yl}-p-tolyl}oxy}acetate] | 8.0 | 8.0 | 7.5 | 9.0 | 4.0 | 9.0 | 9.0 | 9.0 | 9.0 | 9.0 | 8.0 | 9.0 |
| Cn1c(C(F)(F)F)cc(=O)n(-c2ccc3snc(Br)c3c2)c1=O [Compound 36, 3-(3-Bromo-1,2-benzisothiazol-5-yl)-1-methyl-6-(trifluoromethyl)-2,4(1H,3H)-pyrimidinedione] | 0.5 | 0.0 | 1.5 | 0.0 | 0.0 | 9.0 | 1.0 | 1.0 | 0.0 | 0.0 | 0.5 | 0.0 |
| CC#CCOC(=O)C(C)Oc1ccc(C)cc1-c1nsc2ccc(-n3c(=O)cc(C(F)(F)F)n(C)c3=O)cc12 (stereo not drawn) [Compound 80, 2-Butynyl 2-{{2-{5-[3,6-dihydro-3-methyl-2,6-dioxo-4-(trifluoromethyl)-1(2H)-pyrimidinyl]-1,2-benzisothiazol-3-yl}-p-tolyl}oxy}propionate] | 8.0 | 7.5 | 7.5 | 9.0 | 7.0 | 9.0 | 9.0 | 9.0 | 9.0 | 9.0 | 7.5 | 9.0 |
